Assay results published in patent publication US20240199571A1, “THIOPHENE COMPOUND AND APPLICATION THEREOF” (MEDSHINE DISCOVERY INC., priority 2021, published 2024).
Structures can show the parent of a compound that is named as a salt.

Assays:
[1] = Experiment 3: pharmacokinetic evaluation in CD-1 mice (IV and oral); format: in vivo; details: mouse, plasma, male CD-1 mice; for clearance / half-life / Vd: IV 1 mg/kg; for clearance: read-out: Clearance rate CL; for half-life: read-out: Half life T1/2 (IV, h) (converted); for Vd: read-out: Volume of distribution at steady state Vdss; for bioavailability: PO 2 mg/kg vs IV 1 mg/kg, read-out: Bioavailability F (%); for AUC(0-t): PO 2 mg/kg, read-out: Area under drug-time curve AUC0-last PO; for Cmax: single dose, oral 2 mg/kg, read-out: Peak concentration Cmax
Method in brief: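 Male/female CD-1 mice aged 7-9 weeks, two per route, received single doses of 1 mg/kg IV or 2 mg/kg oral gavage in 10% DMSO/90% of 10% HP-β-cyclodextrin. Plasma was sampled from 0.083 (IV) or 0.25 (PO) to 24 h. Methanol-precipitated samples were measured by LC-MS/MS to derive Cmax, CL, T1/2, Vdss, AUC0-last and F.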

human LSD1 = human LSD1 (Homo sapiens (Human), UniProt O60341); assay: Experiment 1B: in vitro LSD1 enzyme activity, enzyme-coupled fluorescence (HRP/Amplex Red), H3(1-21)K4me2 peptide 10 μM (Reaction Biology); format: biochemical; details: histone H3(1-21)K4me2 peptide 10 μM
Method in brief: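 Human LSD1 with 10 μM histone H3(1-21)K4me2 peptide; enzyme and substrate incubated 30 min before compound addition started the reaction. H2O2 detected via HRP/Amplex Red fluorescence (Ex/Em 535/590). IC50 from 10-point 3-fold dilutions starting at 10 μM.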

[2] = test system: human small cell lung cancer NCI-H1417 cell subcutaneous xenograft tumor; assay: Experiment 5: in vivo pharmacodynamic study, NCI-H1417 subcutaneous xenograft tumor in CB17-SCID mice; details: p.o.; for Mean tumor volume ± SEM (mm^3) (Day 28): day 28 after administration; for TGI (%): tumor volume at day 28
Description: Experiment 5: In Vivo Pharmacodynamic Study of Compounds on CB17-SCID Mouse Model of Human Small Cell Lung Cancer NCI-H1417 Cell Subcutaneous Xenograft Tumor
The purpose of this experiment was to evaluate the in vivo efficacy of the compounds of the present disclosure on CB17-SCID mouse model of human small cell lung cancer NCI-H1417 cell subcutaneous xenograft tumor.
5.2 Experimental Animals: • Species: mice • Strain: CB17-SCID mice • Week age and weight: 6-8 weeks old, 18 to 22 grams • Gender: Female • Supplier: Beijing Vital River Laboratory Animal Technology Co., Ltd.
Human lung cancer cells NCI-H1417 were cultured in vitro in suspension in RPMI 1640 medium with 10% fetal bovine serum, 100 U/mL penicillin, and 100 μg/mL streptomycin at 37° C. in a 5% CO2 cell culture incubator. Routine digestion and passage treatment were performed twice a week. When the number of cells reached the required number, the cells were counted and resuspended in PBS at a density of 10×10^6 cells/200 μL.
0.2 mL of NCI-H1417 tumor cells (containing 10×10^6 cells) suspension (PBS: matrix gel=1:1) was subcutaneously inoculated on the right back of mice, and in pharmacodynamic experiments, on the 16th day after cell inoculation, when the average tumor volume reached 86 mm^3, the subjects were randomly grouped and the administration started.
The experimental vehicle was 5% dimethyl sulfoxide/95% (10% Solutol) solution. Preparation method: 3.8 mL of […] was taken and added to 34.2 mL of double-distilled water, 2 mL of dimethyl sulfoxide was added thereto, and the mixture was mixed well. The test substance was dissolved with the vehicle, prepared as a homogeneous solution of a certain concentration, and stored at 4° C.
The experimental indicator was to examine whether tumor growth was inhibited, delayed, or cured. The tumor diameter was measured twice a week using vernier calipers. The calculation formula of tumor volume is V=0.5a×b^2, wherein a and b represent the long and short diameters of the tumor respectively.
The tumor inhibitory efficacy of compounds was evaluated by TGI (%). TGI (%) reflects the tumor growth inhibition rate. Calculation of TGI (%): TGI (%)=[1−(Average tumor volume at the end of administration in a certain treatment group−Average tumor volume at the beginning of administration in this treatment group)/(Average tumor volume at the end of treatment in the vehicle control group−Average tumor volume at the beginning of treatment in the vehicle control group)]×100%.

NCI-H1417 cells = assay: Experiment 2: inhibition of NCI-H1417 cell proliferation (CellTiter-Glo, 10 days); format: cell-based; details: Homo sapiens, 240 h, 10 days incubation
Method in brief: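 Cells at 1000 per well exposed to 10-point 3-fold dilutions from 10 μM top concentration for 10 days. Viability by CellTiter-Glo luminescence; inhibition normalized to max/min controls, IC50 from four-parameter fit.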

For `CC(C)(CO)n1cc2cc(-c3sc(C(=O)N4CCC[C@@H](N)C4)cc3-c3ccc(C#N)c(F)c3)ccc2n1` [Hydrochloride of compound 87], the clearance [1] was 25.7 mL/min/kg, the half-life [1] was 1.54 h and the Vd [1] was 3.13 L/kg. The bioavailability [1] was 41.1%, the AUC(0-t) [1] was 1.01 µM·h and the Cmax [1] was 267 nM. The IC50 (human LSD1) was 24.8 nM, the “Mean tumor volume ± SEM (mm^3) (Day 28)” value ([2]; 30 mg/kg, BID) was 67 ± 5 mm^3 and the “TGI (%)” value ([2]; 30 mg/kg, BID) was 105.17%. It also gave an IC50 (NCI-H1417 cells) of 5.11 nM.

`CN[C@@H]1CCCN(C(=O)c2cc(-c3ccc(C#N)c(F)c3)c(-c3cc4nnn(CC(C)(C)O)c4c(F)c3F)s2)C1` [Hydrochloride of compound 98] gave a clearance [1] of 45.3 mL/min/kg, a half-life [1] of 2.28 h and a Vd [1] of 6.94 L/kg. The bioavailability [1] was 58.6%, the AUC(0-t) [1] was 0.708 µM·h and the Cmax [1] was 160 nM. For the same molecule, the IC50 (human LSD1) was 12.6 nM, the “Mean tumor volume ± SEM (mm^3) (Day 28)” value ([2]; 5 mg/kg, BID) was 34 ± 1 mm^3 and the “TGI (%)” value ([2]; 5 mg/kg, BID) was 114.20%. The “Mean tumor volume ± SEM (mm^3) (Day 28)” value ([2]; 5 mg/kg, QD) was 44 ± 2 mm^3, the “TGI (%)” value ([2]; 5 mg/kg, QD) was 111.58% and the “Mean tumor volume ± SEM (mm^3) (Day 28)” value ([2]; 10 mg/kg, QD) was 38 ± 3 mm^3. For the same molecule, the “TGI (%)” value ([2]; 10 mg/kg, QD) was 113.35% and the IC50 (NCI-H1417 cells) was 0.07 nM.
